Data from patent US9089509B2, “Method of treatment of age-related macular degeneration” (YEDA RESEARCH AND DEVELOPMENT CO., LTD., priority 2006, dated 2015).

Legend:
microglia [1] = conditions: added to microglia activated by aggregated Aβ (Butovsky et al., 2005); cited from earlier work
microglia [2] = experiment: Engulfment of aggregated Aβ(1-40) by activated microglia; type: cell-based, mouse; conditions: 10 ng/ml; Aβ(1-40) 5 μg/ml for 1 h, vs untreated microglia (FIG. 5)
Description: FIGS. 5A-5B show engulfment of aggregated Aβ by activated microglia. Microglia were treated with IL-4 (10 ng/ml) 24 h after seeding (MG(IL-4)) or were left untreated for 48 h (MG(−)). The media were then replaced by a labeling medium (DMEM containing 10 mg/ml bovine serum albumin), and aggregated Aβ(1-40) was added (5 μg/ml) for 1 h. Following incubation the cultures were fixed and immunostained with antibodies directed to human Aβ and co-stained for microglia (IB-4). (FIG. 5A) Confocal photomicrographs. (FIG. 5B) Quantitative analysis expressed as intensity per cell. Results of one of two experiments, each containing eight replicates (20-30 cells per replicate) per group are presented (means±SD).
Brains from neonatal (P0-P1) C57Bl/6J mice were stripped of their meninges and minced with scissors under a dissecting microscope (Zeiss, Stemi DV4, Germany) in Leibovitz-15 medium (Biological Industries, Kibbutz Beit Ha-Emek, Israel). After trypsinization (0.5% trypsin, 10 min, 37° C./5% CO2), the tissue was triturated. […]

microglia [3] = experiment: CD11c expression and morphology in primary culture of mouse microglia; type: cell-based
Description: Brains from neonatal (P0-P1) C57Bl/6J mice were stripped of their meninges and minced with scissors under a dissecting microscope (Zeiss, Stemi DV4, Germany) in Leibovitz-15 medium (Biological Industries, Kibbutz Beit Ha-Emek, Israel). After trypsinization (0.5% trypsin, 10 min, 37° C./5% CO2), the tissue was triturated. The cell suspension was washed in culture medium for glial cells [DMEM supplemented with 10% fetal calf serum (FCS; Sigma-Aldrich, Rehovot), L-glutamine (1 mM), sodium pyruvate (1 mM), penicillin (100 U/ml), and streptomycin ([…])] and cultured at 37° C./5% CO2 in 75-cm^2 Falcon tissue-culture flasks (BD Biosciences) coated with poly-D-lysine (PDL) (10 mg/ml; Sigma-Aldrich, Rehovot) in borate buffer (2.37 g borax and 1.55 g boric acid dissolved in 500 ml sterile water, pH 8.4) for 1 h, then rinsed thoroughly with sterile, glass-distilled water. Half of the medium was changed after 6 h in culture and every 2nd day thereafter, starting on day 2, for a total culture time of 10-14 days. Microglia were shaken off the primary mixed brain glial cell cultures (150 rpm, 37° C., 6 h) with maximum yields between days 10 and 14, seeded (10^5 cells/ml) onto PDL-pretreated 24-well plates (1 ml/well; Corning, N.Y., N.Y.), and grown in culture medium for microglia [RPMI-1640 medium (Sigma-Aldrich, Rehovot) supplemented with 10% FCS, L-glutamine (1 mM), sodium pyruvate (1 mM), β-mercaptoethanol ([…]), penicillin (100 U/ml), and streptomycin ([…])]. The cells were allowed to adhere to the surface of a PDL-coated culture flask (30 min, 37° C./5% CO2), and non-adherent cells were rinsed off.
Cover slips from co-cultures of NPCs and mouse microglia were washed with PBS, fixed as described above, treated with a permeabilization/blocking solution containing 10% FCS, 2% bovine serum albumin, 1% glycine, and 0.1% Triton X-100 (Sigma-Aldrich, Rehovot), and stained with a combination of mouse anti-[…] (anti-βIII-T) isoform C-terminus antibodies (1:500; Chemicon, Temecula, Calif.), rat anti-CD11b (MAC1; 1:50; BD—Pharmingen, Franklin Lakes, N.J.) and hamster anti-CD11c (1:100; eBioscience, San Diego, Calif.). To capture the microglia FITC- or Cy3-conjugated Bandeiraea simplicifolia isolectin B4 (IB-4; 1:50; Sigma-Aldrich, Rehovot) was used. To detect expression of human Aβ anti-Aβ (human amino-acid residues 1-17) (mouse, clone 6E10; Chemicon) was used.
On the basis of our previous findings, we suspected that the switch from a CD11b^+/CD11c^−/IGF-1^− to a CD11b^+/CD11c^+/IGF-I^+ microglial phenotype in the Cop-1 vaccinated Tg-AD mice might be attributable to IL-4. We examined this possibility in vitro. […] In contrast, the expression of CD11c induced by IL-4 was not transient. Quantification of the ability of IL-4 to induce CD11c expression even after the microglia were pretreated with Aβ is shown in FIG. 4D.
Thus, upregulation of CD11c on bone marrow derived myeloid cells by […] will allow the cells to reach injured sites and induce beneficial effect.

[4] = test system: neural stem/progenitor cells (NPCs) co-cultured with microglia; experiment: Co-culture of GFP-expressing neural progenitor cells with treated microglia, neurogenesis (GFP+/βIII-T+ cells); type: cell-based, mouse; conditions: cytokine 10 ng/ml added for 48 h after 48 h aggregated Aβ(1-40) 5 μM
Description: Coronal sections (2 mm thick) of tissue containing the subventricular zone of the lateral ventricle were obtained from the brains of adult C57Bl/6J mice. The tissue was minced and then incubated for digestion at 37° C., 5% CO2 for 45 min in Earle's balanced salt solution containing 0.94 mg/ml papain (Worthington, Lakewood, N.J.) and 0.18 mg/ml of L-cysteine and EDTA. After centrifugation at 110×g for 15 min at room temperature, the tissue was mechanically dissociated by pipette trituration. Cells obtained from single-cell suspensions were plated (3500 cells/cm^2) in 75-cm^2 Falcon tissue-culture flasks (BD Biosciences, San Diego, Calif.), in neural stem/progenitor cell (NPC)-culturing medium [Dulbecco's modified Eagles's medium (DMEM)/F12 medium (Gibco/Invitrogen, Carlsbad, Calif.) containing 2 mM L-glutamine, 0.6% glucose, 9.6 μg/ml putrescine, 6.3 ng/ml progesterone, 5.2 ng/ml sodium selenite, 0.02 mg/ml insulin, 0.1 mg/ml transferrin, 2 μg/ml heparin (all from Sigma-Aldrich, Rehovot, Israel), fibroblast growth factor-2 (human recombinant, 20 ng/ml), and epidermal growth factor (human recombinant, 20 ng/ml; both from Peprotech, Rocky Hill, N.J.)]. Spheres were passaged every 4-6 days and replated as single cells. Green fluorescent protein (GFP)-expressing NPCs were obtained as previously described (Pluchino et al., 2003).
Brains from neonatal (P0-P1) C57Bl/6J mice were stripped of their meninges and minced with scissors under a dissecting microscope (Zeiss, Stemi DV4, Germany) in Leibovitz-15 medium (Biological Industries, Kibbutz Beit Ha-Emek, Israel). After trypsinization (0.5% trypsin, 10 min, 37° C./5% CO2), the tissue was triturated. The cell suspension was washed in culture medium for glial cells [DMEM supplemented with 10% fetal calf serum (FCS; Sigma-Aldrich, Rehovot), L-glutamine (1 mM), sodium pyruvate (1 mM), penicillin (100 U/ml), and streptomycin ([…])] and cultured at 37° C./5% CO2 in 75-cm^2 Falcon tissue-culture flasks (BD Biosciences) coated with poly-D-lysine (PDL) (10 mg/ml; Sigma-Aldrich, Rehovot) in borate buffer (2.37 g borax and 1.55 g boric acid dissolved in 500 ml sterile water, pH 8.4) for 1 h, then rinsed thoroughly with sterile, glass-distilled water. Half of the medium was changed after 6 h in culture and every 2nd day thereafter, starting on day 2, for a total culture time of 10-14 days. […]

IL-4: recombinant mouse IL-4, a cytokine derived from T-helper (Th)-2 cells
effect on Aβ-induced down-regulation of IGF-I, up-regulation of TNF-α and failure to act as APCs (microglia [1]): can reverse the down-regulation of IGF-I expression | ability of microglia to engulf aggregated Aβ(1-40) (intracellular immunoreactive Aβ) (microglia [2]): did not interfere with the ability of microglia to engulf Aβ | CD11c expression by microglia (microglia [3]; 5-day microglia cultures, vs untreated (FIG. 4A)): abundantly expressed | persistence of induced CD11c expression as a function of time in culture (microglia [3]; FIG. 4C): not transient | CD11c expression by microglia pre-exposed to Aβ (microglia [3]; cytokine added 3 days after exposure to aggregated Aβ(1-40) (FIG. 4B, 4D)): able to induce them to express CD11c | amoeboid morphology of Aβ-treated microglia (microglia [3]; on addition of cytokine, dendritic-like morphology (FIG. 4B)): reversible on addition of IL-4 | counteracting the negative effect of Aβ-activated microglia on NPC survival and differentiation [4]: partially counteracted
